One compound from US10723741B1, “DNA polymerase IIIC inhibitors and use thereof” (Acurx Pharmaceuticals, LLC, priority 2018, dated 2020) can be followed below.

Type in all cases: cell-based
Assay [1] concerns Staphylococcus aureus NRS384 (MRSA). The experiment in a line: Broth microdilution MIC, S. aureus NRS384 (MRSA). Particulars: Staphylococcus aureus; broth microdilution, 37° C., 20 hours; read-out: MIC NRS 384 (MRSA). The method, boiled down:
(§1)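 Broth microdilution in strain-specific test medium with ~5.0×10^5 cfu/ml inoculum, 1% DMSO and two-fold compound dilutions from 64 to 0.0625 μg/ml. Plates were held 20 hours at 37° C in ambient air. S. pneumoniae colonies were grown beforehand on blood agar in 5% CO2.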

Assay [2] concerns Staphylococcus aureus ATCC 29213 (MSSA). The experiment in a line: Broth microdilution MIC, S. aureus ATCC 29213 (MSSA). Particulars: broth microdilution, 37° C., 20 hours, read-out: MIC S. aureus ATCC 29213 (MSSA). The method, boiled down: as §1
Assay [3] has as its system Enterococcus faecalis ATCC 29212. The experiment in a line: Broth microdilution MIC, E. faecalis ATCC 29212. The note with it: ATCC29212, broth microdilution, 37° C., 20 hours, read-out: MIC E. faecalis ATCC 29212. The method, boiled down: as §1
The subject of assay [4] is Enterococcus faecium ATCC 700221 (VRE). As to the kind of experiment: Broth microdilution MIC, E. faecium ATCC 700221 (VRE). The note with it: Enterococcus faecium; broth microdilution, 37° C., 20 hours; read-out: MIC E. faecium ATCC 700221 (VRE). In a few lines: as §1
In assay [5] the test system is Streptococcus pneumoniae ATCC 49619. The experiment in a line: Broth microdilution MIC, S. pneumoniae ATCC 49619. The note with it: ATCC49619, broth microdilution, 37° C., 20 hours, read-out: MIC S. pneumoniae ATCC 49619. In a few lines:
as §1

The test system of assay [6] is Bacillus subtilis ATCC 6633. The experiment in a line: Broth microdilution MIC, B. subtilis ATCC 6633. Particulars: ATCC6633, broth microdilution, 37° C., 20 hours, read-out: MIC B. subtilis ATCC 6633. In a few lines:
as §1

The test system of assay [7] is Escherichia coli ATCC 25922. The experiment in a line: Broth microdilution MIC, E. coli ATCC 25922 (MHIIB w & w/o 4 mM EDTA). Particulars: broth microdilution, 37° C., 20 hours. In a few lines: as §1

Structures are written as SMILES.

For `CN(C)CCOCCn1ncc2nc(NCc3ccc(Cl)c(Cl)c3)[nH]c(=O)c21.Cl` [Compound 211, 5-((3,4-dichlorobenzyl)amino)-1-(2-(2-(dimethylamino)ethoxy)ethyl)-1H-pyrazolo[4,3-d]pyrimidin-7(6H)-one hydrochloride], the MIC in assay [1] turned out to be 32 µg/mL; in assay [2] it was 32 µg/mL; in assay [3], 16 µg/mL; in assay [4], 8 µg/mL; in assay [5], 4 µg/mL; in assay [6], 2 µg/mL. In addition, in assay [7] (Escherichia coli, ATCC25922, without EDTA, read-out: MIC E. coli ATCC 25922), the MIC was above 64 µg/mL. Moreover, the “MIC E. coli ATCC 25922 + 4 mM EDTA” value in assay [7] (with 4 mM EDTA) is above 64 µg/mL.
